Experiment [1] deals with normal human keratinocytes in monolayer. Kind of experiment: hBD2 and hBD3 expression (RT-PCR, band intensity vs actin) in keratinocytes in monolayer. It is filed as cell-based. The settings on record: 100 ng/ml, 16 hours. The protocol:
The normal human keratinocytes are cultivated in monolayer on 96-wells culture plates, in a defined medium without serum and enriched with calcium (final concentration 1.7 mM).
At 80% of confluence, the cells are placed in contact with a chemical stress, i.e. molecules which mimic a microbial attack, such as TNFα (100 ng/ml) or IFNγ (100 ng/ml), for 16 hours. Keratinocytes which are non-stressed, i.e. which are not placed in contact with the chemical substances mimicking a microbial attack, are used in a model of reconstructed epidermis.
After 16 hours, the supernatants are collected and the cells are dry frozen at −80° C. after a rinsing with PBS.
The total RNAs are extracted with the aid of a 96-wells fluo extraction kit on silica columns and are determined on a 96-wells spectrophotometer at 260 and 280 nm. The RNAs are diluted at 5 ng/μl.
The one-step qualitative RT-PCR is carried out on 50 ng of RNA (initial) in 96 wells, on actin, hBD2 and hBD3. The primers are used at 0.5 μM and are from the literature: hBD2sense: 5′-[…]-3′; hBD2antisense: 5′-GGAGCCCJTlCTGMTC CGCA-3′ (Harder J. et al., A peptide antibiotic from human skin. Nature 1997; 387: 861); hBD3sense: 5′-[…]-3′, hBD3 antisense: 5′-[…] […]-3′; actin sense: 5′-[…]-3′, actin antisense: 5′-[…]lTTC-3′ (Harder J. et al., Isolation and characterization of hBD3, a novel human inducible peptide antibiotic. J. Biol. Chem. 2001; 276: 5707-5713).
The samples are placed in a thermocycler and following a common program of amplification: 50° C., 30 mins; 94° C., 2 mins; (94° C., 30 secs; 60° C., 30 sec; 68° C., 30 sec) 32 cycles for the defensins and 30 cycles for the actin; 72° C., 10 min; 14° C., infinity.
After amplification, the products are mixed at the rate of 3 μl of products of amplification of actin+6 μl of products of amplification of hBD2+6 μl of products of amplification of hBD3. 5 μl of a mixture of filler buffer and water (2/3) are added and the final 20 μl are deposited on a pre-poured 2% agarose gel. The samples migrate in 30 minutes and the bands are visualized under UV in a black chamber and are photographed digitally.
(§1) The photographs of the gels are analyzed by an image treatment software which quantifies the intensity of the bands. The ratios of intensity of the hBD2/actin and hBD3/actin bands are compared on the one hand between the monolayer model and the 3D model (reconstructed epidermis) in a non-stressed condition, and, on the other hand, following the effect of a stress (cells treated with TNFβ or IFNγ).

The test system of experiment [2] is reconstructed epidermis (foreskin keratinocytes). Kind of experiment: hBD2 and hBD3 expression (RT-PCR, band intensity vs actin) in 3D reconstructed epidermis. The settings on record: 100 ng/ml, 24 hours. It is filed as cell-based, human. The procedure:
At the end of experimentation, the reconstructed epidermis are treated in the following manner:
1 sample undergoes no treatment (model comprising reference cells=negative control).
1 sample undergoes no treatment with the actives but undergoes various types of stress at the end of culture (model comprising stressed cells=positive control), e.g. incubation in the presence of TNFα at 100 ng/ml, IFN γ100 ng/ml.
1 sample undergoes the treatment with the active (1% in the culture medium for 24 hours) and then a stress (equivalent to the positive control).
The RNAs are diluted at 5 ng/μl and are treated as described above.
as §1

Turning to TNFα, in experiment [1], the “HBD2, ratio of intensity of the hBD2/actin bands” value amounted to 1.240 and the “HBD3, ratio of intensity of the hBD3/actin bands” value came out at 0.266. Besides, in experiment [2], the “HBD2, ratio of intensity of the hBD2/actin bands” value worked out at 1.617 and the “HBD3, ratio of intensity of the hBD3/actin bands” value is on record as 0.546.

For the substance “IFNγ: molecule mimicking a microbial attack, used as stress”, the “HBD2, ratio of intensity of the hBD2/actin bands” value in experiment [1] is 0.450; in experiment [2], 0.581. Further, the “HBD3, ratio of intensity of the hBD3/actin bands” value in experiment [1] was determined as 0.370; in experiment [2] it was 0.492.

Values taken from patent US20040096815A1, “Method of identifying an eventual modification of at least one biological parameter making use of living cells which are subjected to a stress and living cells which are not subjected to this same stress” (COLETICA, priority 2002, published 2004).
